Patent US10294202B2, “Pyrrolidinones as herbicides” (FMC Corporation, priority 2013, dated 2019)

Legend:
barnyardgrass [1] = test: Test C pre-/postemergence herbicide test; format: in vivo, Echinochloa crus-galli; conditions: Preemergence; for Plant response rating, Barnyardgrass: 125 g ai/ha; for Plant response rating (scale of 0 to 100; 0 is no effect, 100 is complete control), Barnyardgrass: 250 g ai/ha
Procedure, shortened: (§1)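 Greenhouse pots; formulation = non-phytotoxic solvent mix + surfactant. PRE onto seeds in loam:sand; POST at 1–4 leaves (2–18 cm) in peat moss/vermiculite medium. Read-out: visual % control vs untreated, day 13–15.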

giant foxtail = test: Test A pre-/postemergence herbicide test; format: in vivo, Setaria faberii
Procedure, shortened: (§2)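 Greenhouse pot test with pre- and postemergence application of surfactant-containing solvent formulations. Postemergence plants were 2–10 cm, one- to two-leaf stage. Response scored visually after ~10 days, 0 (no effect) to 100 (complete control).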

soybean = test: Test C pre-/postemergence herbicide test; format: in vivo, Glycine max; conditions: Preemergence; for Plant response rating, Soybean: 125 g ai/ha; for Plant response rating (scale of 0 to 100), Soybean: 250 g ai/ha
Procedure, shortened: as §1

corn [2] = test: Test C pre-/postemergence herbicide test; format: in vivo, Zea mays; conditions: Preemergence; for Plant response rating, Corn: 125 g ai/ha; for Plant response rating (scale of 0 to 100), Corn: 250 g ai/ha
Procedure, shortened: as §1

ducksalad = test: Test B flooded paddy test; format: in vivo, Heteranthera limosa; conditions: 1000 g ai/ha, Flood; scale of 0 to 100 where 0 is no effect and 100 is complete control
Procedure, shortened: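 Treatment was made at the 2-leaf stage by dosing the standing floodwater, kept 3 cm above soil level for the whole test. Greenhouse exposure lasted 13 to 15 days. Response is a visual percent rating relative to controls, where a dash indicates no test result.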

ryegrass, Italian = test: Test C pre-/postemergence herbicide test; format: in vivo, Lolium multiflorum; conditions: Preemergence; for Plant response rating, Ryegrass, Italian: 125 g ai/ha; for Plant response rating (scale of 0 to 100), Ryegrass, Italian: 250 g ai/ha
Procedure, shortened: as §1

lambsquarters = test: Test C pre-/postemergence herbicide test; format: in vivo, Chenopodium album; conditions: Preemergence; for Plant response rating, Lambsquarters: 125 g ai/ha; for Plant response rating (scale of 0 to 100), Lambsquarters: 250 g ai/ha
Procedure, shortened: as §1

waterhemp = test: Test C pre-/postemergence herbicide test; format: in vivo, Amaranthus rudis; conditions: Preemergence; for Plant response rating, Waterhemp: 125 g ai/ha; for Plant response rating (scale of 0 to 100), Waterhemp: 250 g ai/ha
Procedure, shortened: as §1

nutsedge, yellow = test: Test C pre-/postemergence herbicide test; format: in vivo, Cyperus esculentus; conditions: Preemergence; for Plant response rating, Nutsedge, Yellow: 125 g ai/ha; for Plant response rating (scale of 0 to 100), Nutsedge, Yellow: 250 g ai/ha
Procedure, shortened: as §1

barnyardgrass [3] = test: Test A pre-/postemergence herbicide test; format: in vivo, Echinochloa crus-galli
Procedure, shortened: as §2

corn [4] = test: Test A pre-/postemergence herbicide test; format: in vivo, Zea mays
Procedure, shortened: as §2

[5] = 31 g ai/ha, scale 0 to 100, 0 is no effect and 100 is complete control
[6] = 62 g ai/ha, scale 0 to 100 (0 no effect, 100 complete control)
[7] = scale 0 to 100 (0 no effect, 100 complete control)
[8] = Postemergence, 125 g ai/ha, 0 to 100 scale, 0 is no effect, 100 is complete control
[9] = Postemergence, 500 g ai/ha, 0 to 100 scale (0 no effect, 100 complete control)
[10] = Preemergence, 125 g ai/ha, 0 to 100 scale where 0 is no effect and 100 is complete control
[11] = preemergence, 500 g ai/ha, 0 to 100 scale, 0 is no effect and 100 is complete control

Compound: O=C1NCC(c2ccc(C(F)(F)F)c(F)c2)C1C(=O)Nc1cccc(F)c1F (racemic) [Compound 247]
- Barnyardgrass plant response rating (barnyardgrass [1]; [5]): 15
- Barnyardgrass plant response rating (barnyardgrass [1]; [6]): 85
- Plant response rating, Barnyardgrass (barnyardgrass [1]; [7]): 90
- Plant response rating (scale of 0 to 100; 0 is no effect, 100 is complete control), Barnyardgrass (barnyardgrass [1]): 90
- Plant response rating, Foxtail, Giant (giant foxtail; [8]): 50
- Plant response rating, Foxtail, Giant (giant foxtail; [9]): 80
- Plant response rating, Foxtail, Giant (giant foxtail; [10]): 80
- Plant response rating, Foxtail, Giant (giant foxtail; [11]): 90
- Soybean plant response rating (soybean; [5]): 0
- Soybean plant response rating (soybean; [6]): 0
- Plant response rating, Soybean (soybean; [7]): 0
- Plant response rating (scale of 0 to 100), Soybean (soybean): 0
- Corn plant response rating (corn [2]; [5]): 5
- Corn plant response rating (corn [2]; [6]): 15
- Plant response rating, Corn (corn [2]; [7]): 60
- Plant response rating (scale of 0 to 100), Corn (corn [2]): 60
- Plant response rating, Ducksalad (ducksalad): 95
- Ryegrass, Italian plant response rating (ryegrass, Italian; [5]): 0
- Ryegrass, Italian plant response rating (ryegrass, Italian; [6]): 35
- Plant response rating, Ryegrass, Italian (ryegrass, Italian; [7]): 40
- Plant response rating (scale of 0 to 100), Ryegrass, Italian (ryegrass, Italian): 50
- Lambsquarters plant response rating (lambsquarters; [5]): 0
- Lambsquarters plant response rating (lambsquarters; [6]): 90
- Plant response rating, Lambsquarters (lambsquarters; [7]): 70
- Plant response rating (scale of 0 to 100), Lambsquarters (lambsquarters): 80
- Waterhemp plant response rating (waterhemp; [5]): 70
- Waterhemp plant response rating (waterhemp; [6]): 100
- Plant response rating, Waterhemp (waterhemp; [7]): 100
- Plant response rating (scale of 0 to 100), Waterhemp (waterhemp): 85
- Nutsedge, Yellow plant response rating (nutsedge, yellow; [5]): 0
- Nutsedge, Yellow plant response rating (nutsedge, yellow; [6]): 20
- Plant response rating, Nutsedge, Yellow (nutsedge, yellow; [7]): 20
- Plant response rating (scale of 0 to 100), Nutsedge, Yellow (nutsedge, yellow): 0
- Plant response rating, Barnyardgrass (barnyardgrass [3]; [8]): 60
- Plant response rating, Barnyardgrass (barnyardgrass [3]; [9]): 80
- Plant response rating, Barnyardgrass (barnyardgrass [3]; [10]): 90
- Plant response rating, Barnyardgrass (barnyardgrass [3]; [11]): 90
- Plant response rating, Corn (corn [4]; [8]): 0
- Plant response rating, Corn (corn [4]; [9]): 20
- Plant response rating, Corn (corn [4]; [10]): 0
- Plant response rating, Corn (corn [4]; [11]): 0

Compound: O=C1NCC(c2ccc(C(F)(F)F)nc2)C1C(=O)Nc1ccccc1F (racemic) [Compound 262]
- Barnyardgrass plant response rating (barnyardgrass [1]; [5]): 45
- Barnyardgrass plant response rating (barnyardgrass [1]; [6]): 70
- Plant response rating, Barnyardgrass (barnyardgrass [1]; [7]): 90
- Plant response rating (scale of 0 to 100; 0 is no effect, 100 is complete control), Barnyardgrass (barnyardgrass [1]): 95
- Plant response rating, Foxtail, Giant (giant foxtail; [8]): 60
- Plant response rating, Foxtail, Giant (giant foxtail; [9]): 70
- Plant response rating, Foxtail, Giant (giant foxtail; [10]): 80
- Plant response rating, Foxtail, Giant (giant foxtail; [11]): 90
- Soybean plant response rating (soybean; [5]): 0
- Soybean plant response rating (soybean; [6]): 0
- Plant response rating, Soybean (soybean; [7]): 0
- Plant response rating (scale of 0 to 100), Soybean (soybean): 0
- Corn plant response rating (corn [2]; [5]): 0
- Corn plant response rating (corn [2]; [6]): 0
- Plant response rating, Corn (corn [2]; [7]): 10
- Plant response rating (scale of 0 to 100), Corn (corn [2]): 10
- Plant response rating, Ducksalad (ducksalad): 100
- Ryegrass, Italian plant response rating (ryegrass, Italian; [5]): 0
- Ryegrass, Italian plant response rating (ryegrass, Italian; [6]): 0
- Plant response rating, Ryegrass, Italian (ryegrass, Italian; [7]): 0
- Plant response rating (scale of 0 to 100), Ryegrass, Italian (ryegrass, Italian): 0
- Lambsquarters plant response rating (lambsquarters; [5]): 100
- Lambsquarters plant response rating (lambsquarters; [6]): 70
- Plant response rating, Lambsquarters (lambsquarters; [7]): 80
- Plant response rating (scale of 0 to 100), Lambsquarters (lambsquarters): 100
- Waterhemp plant response rating (waterhemp; [5]): 0
- Waterhemp plant response rating (waterhemp; [6]): 50
- Plant response rating, Waterhemp (waterhemp; [7]): 60
- Plant response rating (scale of 0 to 100), Waterhemp (waterhemp): 50
- Nutsedge, Yellow plant response rating (nutsedge, yellow; [5]): 75
- Nutsedge, Yellow plant response rating (nutsedge, yellow; [6]): 0
- Plant response rating, Nutsedge, Yellow (nutsedge, yellow; [7]): 0
- Plant response rating (scale of 0 to 100), Nutsedge, Yellow (nutsedge, yellow): 0
- Plant response rating, Barnyardgrass (barnyardgrass [3]; [8]): 60
- Plant response rating, Barnyardgrass (barnyardgrass [3]; [9]): 70
- Plant response rating, Barnyardgrass (barnyardgrass [3]; [10]): 80
- Plant response rating, Barnyardgrass (barnyardgrass [3]; [11]): 90
- Plant response rating, Corn (corn [4]; [8]): 0
- Plant response rating, Corn (corn [4]; [9]): 0
- Plant response rating, Corn (corn [4]; [10]): 0
- Plant response rating, Corn (corn [4]; [11]): 0

Compound: O=C1NCC(c2ccc(C(F)(F)F)nc2)C1C(=O)Nc1cccc(F)c1F (racemic) [Compound 263]
- Barnyardgrass plant response rating (barnyardgrass [1]; [5]): 75
- Barnyardgrass plant response rating (barnyardgrass [1]; [6]): 90
- Plant response rating, Barnyardgrass (barnyardgrass [1]; [7]): 95
- Plant response rating (scale of 0 to 100; 0 is no effect, 100 is complete control), Barnyardgrass (barnyardgrass [1]): 98
- Plant response rating, Foxtail, Giant (giant foxtail; [8]): 80
- Plant response rating, Foxtail, Giant (giant foxtail; [9]): 90
- Plant response rating, Foxtail, Giant (giant foxtail; [10]): 90
- Plant response rating, Foxtail, Giant (giant foxtail; [11]): 100
- Soybean plant response rating (soybean; [5]): 0
- Soybean plant response rating (soybean; [6]): 0
- Plant response rating, Soybean (soybean; [7]): 100
- Plant response rating (scale of 0 to 100), Soybean (soybean): 0
- Corn plant response rating (corn [2]; [5]): 0
- Corn plant response rating (corn [2]; [6]): 0
- Plant response rating, Corn (corn [2]; [7]): 0
- Plant response rating (scale of 0 to 100), Corn (corn [2]): 10
- Plant response rating, Ducksalad (ducksalad): 90
- Ryegrass, Italian plant response rating (ryegrass, Italian; [5]): 0
- Ryegrass, Italian plant response rating (ryegrass, Italian; [6]): 0
- Plant response rating, Ryegrass, Italian (ryegrass, Italian; [7]): 0
- Plant response rating (scale of 0 to 100), Ryegrass, Italian (ryegrass, Italian): 35
- Lambsquarters plant response rating (lambsquarters; [5]): 50
- Lambsquarters plant response rating (lambsquarters; [6]): 100
- Plant response rating, Lambsquarters (lambsquarters; [7]): 70
- Plant response rating (scale of 0 to 100), Lambsquarters (lambsquarters): 80
- Waterhemp plant response rating (waterhemp; [5]): 75
- Waterhemp plant response rating (waterhemp; [6]): 80
- Plant response rating, Waterhemp (waterhemp; [7]): 90
- Plant response rating (scale of 0 to 100), Waterhemp (waterhemp): 100
- Nutsedge, Yellow plant response rating (nutsedge, yellow; [5]): 0
- Nutsedge, Yellow plant response rating (nutsedge, yellow; [6]): 0
- Plant response rating, Nutsedge, Yellow (nutsedge, yellow; [7]): 100
- Plant response rating (scale of 0 to 100), Nutsedge, Yellow (nutsedge, yellow): 0
- Plant response rating, Barnyardgrass (barnyardgrass [3]; [8]): 70
- Plant response rating, Barnyardgrass (barnyardgrass [3]; [9]): 80
- Plant response rating, Barnyardgrass (barnyardgrass [3]; [10]): 80
- Plant response rating, Barnyardgrass (barnyardgrass [3]; [11]): 90
- Plant response rating, Corn (corn [4]; [8]): 40
- Plant response rating, Corn (corn [4]; [9]): 60
- Plant response rating, Corn (corn [4]; [10]): 0
- Plant response rating, Corn (corn [4]; [11]): 70
